One assay concerns B. longum. As to the kind of experiment: Fecal fermentation, quantification of B. longum species by real-time PCR. The format is cell-based, Bifidobacterium longum. To be noted: faecal slurry fermentation; 2′-FL at both daily (DD) and per intake (DI) doses; p<0.05 vs product (DD) and blend (DI). The protocol:
(§1) Example 2: A series of experiments were carried out to determine the effects of providing 2′-FL, lutein, and RRR-alpha-tocopherol on bacterial growth. Fecal fermentations were carried out by using 3 ml fermentations in 10 ml fermentor (24 multi-well plate; μ-24 Bioreactor, Applikon Biotechnology). Fresh faecal sample came from a formula (without prebiotic or probiotic)-fed baby. Stools were vacuum stored in refrigerated conditions until the fermentation. Fresh feces were weighed and dissolved in Mc Bain and MacFarlane medium (1:5) to hydrate them. Three milliliters of the homogenized mixture (faecal slurry) were inoculated in each fermenter. In each case, prebiotic (2′-FL), RRR-alpha-tocopherol (vitamin E) and lutein were added at different dosage (Table 4). […] Anaerobiosis, temperature (37° C.) and pH levels (pH 5.5) were maintained during the assay and monitored throughout the study. […] For quantification, previous extracted DNA was used. Real-time PCR was used to quantify genera Bifidobacterium and Lactobacillus, and B. longum and L. fermentum species. In the case of genus Bifidobacterium and B. longum, quantification was performed with primers described by Matsuki et al.1. Lactobacillus group was quantified with primers described by Byun et al.2. Lactobacillus fermentum was quantified with the aid of primers designed by Matsuda et al.3 Nucleotide sequences of primers are listed in Table 5. […]

A further assay concerns genus Bifidobacterium. As to the kind of experiment: Fecal fermentation, quantification of genus Bifidobacterium by real-time PCR. The format is cell-based. To be noted: faecal slurry of formula-fed baby, 37° C., pH 5.5, anaerobic; 2′-FL at both daily (DD) and per intake (DI) doses; p<0.05 vs blend (DD) and blend (DI). As for the experimental part:
as §1
On the technique in general: In qPCR the cycle at which signal appears reflects the starting amount.

The next assay relates to L. fermentum. As to the kind of experiment: Fecal fermentation, quantification of L. fermentum species by real-time PCR. The format is cell-based, Lactobacillus fermentum. To be noted: faecal slurry fermentation; detection limit 1.00·103CFU/g slurry. The protocol: as §1

Molecules are shown by their SMILES.

`C[C@@H]1O[C@@H](O[C@H]2[C@H](O[C@H]3[C@H](O)[C@@H](O)C(O)O[C@@H]3CO)O[C@H](CO)[C@H](O)[C@@H]2O)[C@@H](O)[C@H](O)[C@@H]1O` (stereo partly drawn) [2′-FL, 2′-fucosyllactose]: the “B. longum numbers (real-time PCR, FIG. 2)” value in the assay with B. longum is on record as “significant higher B. longum numbers”. Besides, the “bifidobacteria numbers (real-time PCR, FIG. 1)” value with genus Bifidobacterium is given as “significant higher bifidobacteria numbers”. Also, the “L. fermentum detection (real-time PCR, FIG. 4)” value in the assay with L. fermentum is reported as “reached detectable values”.

(Values after patent US11998577B2, “Methods for increasing growth of beneficial bacteria in the gastrointestinal tract” (ABBOTT LABORATORIES, priority 2017, dated 2024).)
